A short description of data set [1]: Toxicity in nude mouse xenografted with human SK-BR-3 cells assessed as heart damage at 8 micromol/kg, iv administered every 3 days for 14 days by H and E staining based analysis. In kind it is organism-based. The settings on record: in vivo, 336 h, dose 8 µmol/kg, time 14 day.
Data set [2] is described as follows: Toxicity in nude mouse xenografted with human SK-BR-3 cells assessed as effect on globulin level at 8 micromol/kg, iv administered every 3 days for 14 days. In kind it is organism-based. The following applies: in vivo, 336 h, dose 8 µmol/kg, time 14 day.
Data set [3] in a line: Toxicity in nude mouse xenografted with human SK-BR-3 cells assessed as effect on albumin level at 8 micromol/kg, iv administered every 3 days for 14 days. The settings on record: in vivo, 336 h, dose 8 µmol/kg, time 14 day. In kind it is organism-based.
For data set [4], the system named is SK-BR-3. Description: Induction of cell cycle arrest in human SK-BR-3 cells assessed as accumulation of cells at S phase at 2 uM incubated for 24 hrs by flow cytometry analysis (reference value: 23%). In kind it is functional. For orientation: In flow cytometry, cells or beads pass a laser one at a time.
The subject of data set [5] is SK-BR-3. Description: Antitumor activity against human SK-BR-3 cells xenografted in nude mouse assessed as reduction in tumor growth at 8 umol/kg, iv administered every 3 days for 14 days and measured every 2 days. In kind it is functional, organism-based. The following applies: dose 8.0 µmol/kg, time 14.0 day. For orientation: In xenograft studies the graft and the host belong to different species.

In data set [6] the target is T1, DNA topoisomerase 1 (Homo sapiens) (UniProt P11387).
T1 sequence (whole entry): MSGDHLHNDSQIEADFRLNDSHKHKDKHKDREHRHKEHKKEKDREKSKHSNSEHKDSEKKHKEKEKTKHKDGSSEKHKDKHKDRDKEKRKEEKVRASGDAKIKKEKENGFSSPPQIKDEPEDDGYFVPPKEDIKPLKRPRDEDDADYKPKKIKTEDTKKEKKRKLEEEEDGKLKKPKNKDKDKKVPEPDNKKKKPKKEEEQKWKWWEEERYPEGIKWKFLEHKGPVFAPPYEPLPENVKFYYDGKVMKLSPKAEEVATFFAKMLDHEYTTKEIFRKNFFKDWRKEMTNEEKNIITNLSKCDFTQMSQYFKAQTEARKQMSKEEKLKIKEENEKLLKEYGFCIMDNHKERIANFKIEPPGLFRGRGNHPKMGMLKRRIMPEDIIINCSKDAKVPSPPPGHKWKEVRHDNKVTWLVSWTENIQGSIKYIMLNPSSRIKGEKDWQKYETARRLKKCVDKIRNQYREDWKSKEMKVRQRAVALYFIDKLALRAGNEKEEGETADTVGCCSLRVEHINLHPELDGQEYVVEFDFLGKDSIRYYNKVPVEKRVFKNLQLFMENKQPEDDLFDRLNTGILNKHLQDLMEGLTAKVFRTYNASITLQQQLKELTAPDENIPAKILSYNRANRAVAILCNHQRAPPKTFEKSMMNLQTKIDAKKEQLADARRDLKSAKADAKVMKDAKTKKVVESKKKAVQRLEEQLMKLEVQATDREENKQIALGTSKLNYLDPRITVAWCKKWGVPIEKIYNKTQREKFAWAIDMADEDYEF
Nature of the data set: Inhibition of topoisomerase 1 (unknown origin) assessed as relaxation of supercoiled plasmid pBR322 DNA at 10 uM preincubated for 20 mins followed by pBR322 DNA addition and measured after 30 mins by agarose gel electrophoresis analysis. The following applies: time 50.0 min.

For data set [7], the system named is SK-BR-3. Description: Induction of apoptosis in human SK-BR-3 cells assessed as dead cells at 2 uM incubated for 24 hrs by Annexin V-FITC/PI staining based flow cytometry analysis (Rvb= 1.21%). In kind it is functional.
In data set [8] the test system is SK-BR-3. Nature of the data set: Induction of apoptosis in human SK-BR-3 cells assessed as late apoptotic cells at 1 uM incubated for 24 hrs by Annexin V-FITC/PI staining based flow cytometry analysis (Rvb= 5.02%). In kind it is functional.
Data set [9] is described as follows: Toxicity in nude mouse xenografted with human SK-BR-3 cells assessed as effect on alkaline phosphatase level at 8 micromol/kg, iv administered every 3 days for 14 days. In kind it is organism-based. The settings on record: in vivo, 336 h, dose 8 µmol/kg, time 14 day.
The nature of data set [10]: Drug metabolism in human SK-BR-3 cells assessed as camptothecin release at 50 uM measured after 4 hrs by LC-MS/MS analysis. In kind it is ADME, cell-based. The following applies: sk-br-3, 4 h.
Data set [11] has as its system SK-BR-3. Nature of the data set: Induction of apoptosis in human SK-BR-3 cells assessed as live cells at 2 uM incubated for 24 hrs by Annexin V-FITC/PI staining based flow cytometry analysis (Rvb= 89.4%). In kind it is functional.
The subject of data set [12] is SK-BR-3. Description: Induction of apoptosis in human SK-BR-3 cells assessed as dead cells at 1 uM incubated for 24 hrs by Annexin V-FITC/PI staining based flow cytometry analysis (Rvb= 1.21%). In kind it is functional.
Data set [13] deals with SK-BR-3. Description: Induction of cell cycle arrest in human SK-BR-3 cells assessed as accumulation of cells at S phase at 1 uM incubated for 24 hrs by flow cytometry analysis (reference value: 23%). In kind it is functional.
The nature of data set [14]: Hemolytic activity in rat erythrocytes at 3.125 to 100 uM by microplate reader analysis relative to control. The following applies: dose 3.125-100 µM, read-out: Activity. In kind it is toxicity, cell-based, Erythrocyte.

Active and inactive are the calls of the source. The rule behind the calls is not given here. Residues, ends and D or L forms follow the SMILES beside them. *: point of attachment. S(CH2)2OCO2(CPT-20-yl) = CC[C@@]1(OC(=O)OCCS*)C(=O)OCc2c1cc1n(c2=O)Cc2cc3ccccc3nc2-1

Consider `CC[C@H](C)[C@H](NC(=O)[C@@H](N)CCCNC(=N)N)C(=O)N[C@@H](CCCCN)C(=O)N1CCC[C@H]1C(=O)N[C@@H](CCCNC(=N)N)C(=O)N[C@@H](CCCCN)C(=O)NCC(=O)N[C@@H](Cc1ccc(O)cc1)C(=O)N[C@H](C(=O)N[C@@H](CCCNC(=N)N)C(=O)NCC(=O)N[C@@H](CSSCCOC(=O)O[C@]1(CC)C(=O)OCc2c1cc1n(c2=O)Cc2cc3ccccc3nc2-1)C(=O)NCC(=O)N[C@@H](CSSCCOC(=O)O[C@]1(CC)C(=O)OCC2=C1C=C1c3nc4ccccc4cc3NC1C2=O)C(=O)NC(=O)C[C@H](NC(=O)CN)C(=O)N1CCC[C@H]1C(=O)N[C@@H](CC(N)=O)C(=O)N[C@@H](Cc1c[nH]c2ccccc12)C(=O)NCC(=O)N[C@@H](CCCNC(=N)N)C(=O)N[C@@H](CO)C(=O)N[C@@H](Cc1c[nH]c2ccccc12)C(=O)N[C@@H](Cc1ccc(O)cc1)C(=O)N[C@@H](CC(N)=O)C(=O)N[C@@H](CCC(N)=O)C(=O)N[C@@H](CCCNC(=N)N)C(=O)N[C@@H](Cc1ccccc1)C(=O)N[C@@H](CCCCN)C(N)=O)[C@@H](C)O` (stereo partly specified), for which the Activity entry is given as “Non-Toxic” in data set [1]; “Non-Toxic” in data set [2]; “Non-Toxic” in [3]; 49.2% with SK-BR-3 [4]; 0.28% with SK-BR-3 [7]; 8.5% with SK-BR-3 [8]. Further, the Activity entry in data set [9] is “Non-Toxic”; in the data set on SK-BR-3 [11], 44.7%; in the data set on SK-BR-3 [12], 0.49%; in the data set with SK-BR-3 [13] it was 43.45%. Further, the result with SK-BR-3 [5] was Active. Moreover, the inhibition result in data set [6] was “Active”. For the same compound, the Drug metabolism entry in data set [10] is “Metabolite_Detected”.

For `CC[C@H](C)[C@H](NC(=O)[C@@H](N)CCCNC(=N)N)C(=O)N[C@@H](CCCCN)C(=O)N1CCC[C@H]1C(=O)N[C@@H](CCCNC(=N)N)C(=O)N[C@@H](CCCCN)C(=O)NCC(=O)N[C@@H](Cc1ccc(O)cc1)C(=O)N[C@H](C(=O)N[C@@H](CCCNC(=N)N)C(=O)NCC(=O)N[C@@H](CSSCCOC(=O)O[C@]1(CC)C(=O)OCc2c1cc1n(c2=O)Cc2cc3ccccc3nc2-1)C(=O)NCC(=O)N[C@@H](CC(N)=O)C(=O)N1CCC[C@H]1C(=O)N[C@@H](CC(N)=O)C(=O)N[C@@H](Cc1c[nH]c2ccccc12)C(=O)NCC(=O)N[C@@H](CCCNC(=N)N)C(=O)N[C@@H](CO)C(=O)N[C@@H](Cc1c[nH]c2ccccc12)C(=O)N[C@@H](Cc1ccc(O)cc1)C(=O)N[C@@H](CC(N)=O)C(=O)N[C@@H](CCC(N)=O)C(=O)N[C@@H](CCCNC(=N)N)C(=O)N[C@@H](Cc1ccccc1)C(=O)N[C@@H](CCCCN)C(N)=O)[C@@H](C)O` (H-RIKPRKGYTRGC(S(CH2)2OCO2(CPT-20-yl))GNPNWGRSWYNQRFK-NH2), the Activity entry in data set [1] is “Non-Toxic”; in data set [2], “Non-Toxic”; in [3], “Non-Toxic”; in the data set on SK-BR-3 [4] it was 48.5%; with SK-BR-3 [7], 0.64%; in the data set on SK-BR-3 [8], 7.25%. For the same compound, the Activity entry in [9] is reported as “Non-Toxic”; in the data set with SK-BR-3 [11], 49.1%; with SK-BR-3 [12] it was 0.26%; with SK-BR-3 [13] it was 39.2%. Besides, in the data set with SK-BR-3 [5], the outcome was Active. Moreover, the Drug metabolism result in data set [10] is recorded as “Metabolite_Detected”. Besides, the hemolysis at 100 µM in data set [14] is less than 10%.

These data come from ChEMBL document CHEMBL5096235, “In Silico Exploration and Biological Evaluation of Bispecific Peptides Derived from Anti-HER2 Antibodies and Peptide-Camptothecin Conjugates for HER2-Positive Breast Cancer” (J Med Chem, 2022).
